Data on 90 compounds can be found in a melting point compilation (Tetko et al.; mined from patent text by program, amines drawn as free bases though some values may be those of a salt).

SMILES strings stand for the structures. Some results are limits rather than exact numbers.

Turning to `CC(C)C(=O)OC1C(CO)OC(n2cnc3c(N)ncnc32)C1OC(=O)C(C)C` (stereo not given), the melting point (usually the temperature of the solid-liquid transition) lay in the range of 207 to 208 °C.

In the case of `CCNC(=O)c1ccccc1NS(=O)(=O)C(F)(F)F`, the melting point was in the range of 85.5 to 87 °C.

For the compound `N#Cc1ccc(Cn2c3cc(O)c(O)cc3c3ccc(O)c(O)c32)cc1`, the melting point lay in the range of 225 to 227 °C.

Turning to `CCC1(CC(=O)O)OCCc2c1[nH]c1ccc(OCc3ccccc3)cc21` (stereo not given), the melting point lay in the range of 163 to 165 °C.

`CCOC(=O)C(=CNc1cnnn1C)C(=O)c1cc(F)c(Cl)nc1Cl`: the melting point lay within 187 to 189 °C.

Compound `COc1ccc(Cl)cc1-n1cc[nH]c1=O` registered a melting point of 133 to 134 °C.

The compound `O=C(Nc1ccc(OC(F)(F)C(F)F)cc1)N1CC(c2ccccc2)C(c2ccc(OC(F)F)cc2)=N1` (stereo not given) gave a melting point of 132 to 135 °C.

For `Cc1nn(C)c2ccc(C(=O)O)c(C(=O)O)c12`, the melting point lay within 228 to 232 °C.

Compound `C[C@@H](O)[C@@H](OCc1ccccc1)[C@H](OCc1ccccc1)[C@@H](C)O` yielded a melting point of 46 to 50 °C.

On to `CC(C)Cc1c(C(=O)OC(C)(C)C)c(C(F)F)nc(C(F)(F)F)c1C(=O)OC(C)(C)C`, for which the melting point lay in the range of 48 to 50 °C.

Take `CCC(=O)Oc1ccc(C#N)cc1`: the melting point lay within 44 to 46 °C.

For the compound `Cc1[nH]c(=O)[nH]c1C(=O)c1ccc(F)cc1`, the melting point was 289 to 292 °C.

`Cc1cn(C2CCN(c3c(F)cc4c(=O)c(C(=O)O)cn(C5CC5)c4c3F)C2)nn1` (stereo not given) registered a melting point of 219 to 220 °C.

With `COC(=S)c1cc(C)nc(Cl)n1`, the melting point was in the range of 90 to 92 °C.

The compound `ON=Cc1cn2c(n1)COc1ccccc1-2` had a melting point of 232 to 233 °C.

For the compound `Cc1ccc(S(=O)(=O)Oc2cccc(NC(=O)NS(=O)(=O)c3ccccc3)c2)cc1`, the melting point was 162 to 170 °C.

In the case of `Cc1ccc(C(c2ccccc2)C(O)CN(C)C)cc1` (stereo not given), the melting point was 55 to 58 °C.

With `CCCc1ccc(N2CCC(O)CC2)nn1`, the melting point is 138 to 140 °C.

In turn, `CN1CC(=O)N(C(c2ccccc2)c2ccccc2)C1=S` came in with a melting point of 139 to 141 °C.

As to `CC(C)(C)OC(=O)N[C@@H](Cc1ccccc1)C(=O)N[C@@H](Cc1ccc(O)c(I)c1)C(=O)OCc1ccccc1`, the melting point lay in the range of 81.6 to 82.7 °C.

For `N#Cc1ccc(SCc2ccccc2)cc1`, the melting point is 85 °C.

`CN(C)CCOc1ccc(N(CCN(C)C)c2nccc(-c3ccncc3)n2)cc1` showed a melting point of 87 to 91 °C.

Turning to `CCCCCCCCCCCC(=O)N[C@H](CC(=O)c1ccc(C)cc1)C(=O)OCC`, the melting point lay in the range of 60 to 60.5 °C.

Turning to `CCOC(=O)c1sc(Oc2ccc(Cl)cc2Cl)nc1-c1cccc(C(F)(F)F)c1`, the melting point lay within 72 to 73 °C.

As for `CSc1ccc(C=C2CCc3cc(OCCn4ccnc4)ccc3C2=O)cc1`, the melting point was in the range of 161 to 162 °C.

`CN(C1CCN(CCC(F)(F)F)CC1)S(=O)(=O)c1ccc(Nc2nccc(Nc3ccc(F)c(F)c3)n2)cc1`: the melting point fell in the range of 202 to 203 °C.

In turn, `CC(C)(C)N(NC(=S)c1ccc(Cl)cc1)C(=O)c1ccccc1` returned a melting point of 160 to 162 °C.

Regarding `CC(C)(C)OC(=O)NCOc1ccccc1C(=O)O`, the melting point lay within 141 to 144 °C.

Compound `O=C(NC(Cc1ccc(OCc2ccccc2)cc1)C(=O)O)c1cn2cc(-c3cccnc3)ccc2n1` (stereo not given) showed a melting point of 244 °C.

Regarding `CC1CCC2(C)C(=CCC3C2CCC2(C)C3CCC23OCCO3)C1` (stereo not given), the melting point lay in the range of 121 to 122 °C.

In turn, `O=C(Nc1ccc(Oc2ccccc2)cc1)N1CCN(c2cc(C(F)(F)F)nc3ccccc23)CC1` had a melting point of 203 to 204 °C.

With `COc1ccc(N(C(C)=O)S(=O)(=O)c2ccc(C)cc2)c([N+](=O)[O-])c1`, the melting point lay in the range of 172 to 174 °C.

The compound `c1csc(-c2ccc(-c3cc4ncnc(Nc5ccc6[nH]ccc6c5)c4s3)cc2)c1` returned a melting point of 165 to 178 °C.

In the case of `O=C(O)C=CC12CC(c3ccccc31)c1ccccc12`, the melting point fell in the range of 220 to 222 °C.

As to `CN1C(=O)N(Cc2cc(C(F)(F)F)cc(C(F)(F)F)c2)CC1(CCO)c1ccc(Cl)c(Cl)c1` (stereo not given), the melting point turned out to be 96 °C.

In the case of `C=CC(=O)NCNC(=O)CCS(=O)(=O)CCCl`, the melting point fell in the range of 186 to 187 °C.

Compound `O=Cc1cc(Br)ccc1N1CC=CC1` came in with a melting point of 88.2 to 89.2 °C.

As to `COC(=O)C(C(C)C)N1CC(NC(=O)Cc2ccccc2)C1=O` (stereo not given), the melting point is 105 to 107 °C.

With `CN(C)c1ncc(C(=O)N2CCOC(c3cccc(O)c3)C2)c(-c2ccccc2)n1` (stereo not given), the melting point is 140 °C.

Turning to `O=C1CC[C@@H](COc2cccnc2)N1`, the melting point lay in the range of 121 to 122 °C.

In the case of `N#Cc1cnc2cc(-c3ccc(CN4CCOCC4)cn3)ccc2c1Nc1ccc(Oc2ccccc2)cc1`, the melting point lay within 219 to 221 °C.

`COc1ccc(SCc2oc(=O)oc2C)cc1`: the melting point lay within 59 to 61 °C.

Regarding `Cc1c(C(=O)O)ccc(Cl)c1Cl`, the melting point lay within 174 to 175 °C.

In turn, `COc1c(C)c(C)c(OC)c([N+](=O)[O-])c1[N+](=O)[O-]` registered a melting point of 147 to 150 °C.

On to `CCOC(=O)C1=C(C)NC(C)=C(C(=O)c2ccco2)C1c1ccccc1[N+](=O)[O-]` (stereo not given), for which the melting point fell in the range of 133 to 134 °C.

Turning to `CCOC(=O)c1c(C(F)(F)F)nn(C)c1N`, the melting point was 120 to 121 °C.

`COc1cc2ncnc(N3CCc4ccccc43)c2cc1OC` gave a melting point of 162 to 163 °C.

`COc1ccc(S(=O)(=O)N(Cc2cc(C(C)(C)C)c(O)c(C(C)(C)C)c2)c2cccnc2)cc1` showed a melting point of 142 to 143 °C.

The compound `O=C(COc1ccc(Cl)cc1Cl)C(=C1SCCCN1Cl)[N+](=O)[O-]` gave a melting point of 103 to 105 °C.

Turning to `COC(=O)C1=C(O)c2sc3ccccc3c2S(=O)(=O)N1`, the melting point is 240 to 242 °C.

As to `CN(C)Cc1c(-c2cc(C(C)(C)C)c(O)c(C(C)(C)C)c2)nc2n1CCS2`, the melting point fell in the range of 188 to 191 °C.

In turn, `OC1CCN(c2ncc3ncnc(Nc4ccc(F)c(Cl)c4)c3n2)CC1` displayed a melting point of 243 to 246 °C.

`CC(C)NC(=O)Cn1c(-c2ccc(Cl)cc2)nc2cccnc21` came in with a melting point of 248 to 249 °C.

As for `COc1ccc2cc([C@H](C)C(=O)OCCS(=O)CCOC(=O)OC(C)O[N+](=O)[O-])ccc2c1` (stereo not given in full), the melting point lay in the range of 112 to 115 °C.

The compound `CC(C)(C)OC(=O)N1C(=O)C(Br)=C(c2cn(C(=O)OC(C)(C)C)c3ccc(OCc4ccccc4)cc23)C1=O` registered a melting point of 134 °C.

In turn, `CC1(C)CC(=O)C(c2c(Cl)cc([N+](=O)[O-])cc2Cl)C(=O)C1` registered a melting point of 288 to 290 °C.

Compound `Cc1cccc(C)c1NC(=O)CC1CCN(CCC2CCOc3ccccc32)CC1` (stereo not given) showed a melting point of 136 °C.

For the compound `Nc1ccc(Sc2ccccn2)cn1`, the melting point turned out to be 121 °C.

Consider `Cc1cc(C(=O)O)c(NC(=O)Nc2ccc(Oc3ccccc3)cc2)s1`, for which the melting point fell in the range of 213 to 215 °C.

Turning to `CCCCCCCCCCCCN=C=S`, the melting point fell in the range of 75 to 80 °C.

`CC1(C)CCC(C)(C)c2cc(-c3cc(-c4ccc(C(=O)O)cc4)ccc3C(=O)O)ccc21` showed a melting point of 343 °C.

Consider `COc1ccc(Cn2c(=O)oc(=O)c3ccccc32)cc1`, for which the melting point was 143 °C.

As for `CN(CCOc1ccc(C(N)=O)cc1)CCc1ccc([N+](=O)[O-])cc1`, the melting point was 116 to 118 °C.

Turning to `CS(=O)(=O)c1ccc(-n2cncc2-c2ccc(OC(F)(F)F)cc2)cc1`, the melting point was in the range of 141 to 142 °C.

The compound `O=S(c1cn(-c2c(Cl)cc(C(F)(F)F)cc2Cl)c(Cl)n1)C(F)(F)F` (stereo not given) yielded a melting point of 148 °C.

In turn, `CC(=O)Nc1ccc(C(=O)N2CC3CNCC(C3)C2)cc1` showed a melting point of 186 to 189 °C.

Compound `COCCN1CC(c2ccccc2)NC1=S` (stereo not given) yielded a melting point of 76 to 78 °C.

`CCCc1nc(Sc2ccc(OC)cc2)c(CC(=O)O)n1Cc1cc2c(cc1Cl)OCO2` yielded a melting point of 187 °C.

As for `CCCCC1(O)C(C)=CC(=O)CC1(C)C` (stereo not given), the melting point fell in the range of 90 to 93 °C.

`N#Cc1c(N2CCCCC2)cc(-c2cccs2)c2c1-c1ccccc1C2` registered a melting point of 152 to 154 °C.

In turn, `COc1ccc2c(CCC3CCN(C(=O)OC(C)(C)C)CC3)noc2c1` returned a melting point of 95 to 96 °C.

`Nc1ncc2c(n1)-c1cccnc1CC2` registered a melting point of 220 to 226 °C.

As to `COCCN1CCC(O)(c2cccc(Cl)c2Cl)CC1`, the melting point is 135 to 137 °C.

For the compound `CC(=O)NC(=O)Nc1ccc(OS(=O)(=O)c2cccc(C(F)(F)F)c2)cc1N`, the melting point was 182 °C.

The compound `CC(Oc1ccc(Br)cc1)c1ccnc2ncnn12` (stereo not given) registered a melting point of 121 to 124 °C.

Compound `COc1ccc(S(=O)(=O)NC(CCF)C(=O)OC(C)(C)C)cc1` (stereo not given) displayed a melting point of 89 to 90 °C.

Turning to `CCOC(=O)C1(O)CC(c2ccncc2)=NNC1=O` (stereo not given), the melting point is 160 to 163 °C.

In turn, `CC(C)N(Cc1cccs1)S(=O)(=O)N[C@@H](Cc1ccc(NC(=O)c2cc(Cl)cc(Cl)c2)cc1)C(=O)O` displayed a melting point of 122 °C.

Compound `O=C(N[C@H]1CCCNC1=O)OCc1ccccc1` displayed a melting point of 100 to 102 °C.

Turning to `Oc1cccc2c1C=CC=CN2`, the melting point is 132 to 136 °C.

As to `O=C1c2cc3cc(O)ccc3n2CC1CC1CCN(Cc2ccccc2)CC1` (stereo not given), the melting point lay in the range of 186 to 188 °C.

For the compound `Cc1noc(NS(=O)(=O)c2cccc3c(NC(=O)C(C)C)cccc23)c1C`, the melting point was in the range of 177 to 180 °C.

For `CC(C)(C)OC(=O)N1CC(CCl)c2c1cc(O)c1ncccc21` (stereo not given), the melting point lay in the range of 148 to 149 °C.

Compound `COc1nc2cc(Cl)c(Cl)cc2nc1OC` had a melting point of 144 to 146 °C.

`O=C(O)CCc1cn(Cc2cccc(C(=O)NCCc3ccccn3)c2)nc1-c1ccccc1`: the melting point fell in the range of 166 to 167 °C.

In turn, `CC(=O)N1CCC(C2=C(C#N)C(c3cccc(C#N)c3Br)c3c[nH]nc3N2)CC1` (stereo not given) gave a melting point of over 280 °C.

Regarding `CCn1cnc2c(Nc3cccc([N+](=O)[O-])c3)nc(N[C@H]3CC[C@H](O)CC3)nc21`, the melting point lay in the range of 237 to 238 °C.

Consider `CC(=O)Oc1ccc(/C=C/c2cccc(OC(C)=O)c2)cc1`, for which the melting point is 124 to 125 °C.

`COC(=O)c1scc(Br)c1N` displayed a melting point of 58 to 60 °C.

As for `CCC(O)(CC)C1(c2onc(-c3ccc(O)cc3)c2-c2ccccc2)CC1`, the melting point was 118 to 119 °C.
